Assay results: PubChem BioAssay AID248 (DTP/NCI, 2004)
Values joined by “and” are separate entries in the source; they are usually repeats but may differ in a detail not shown here. Identical values can stand only once. Toxic doses and inconclusive results are not listed. Cut-off read from the data, not from the text of the source: active = T/C of 150% or more; inactive = T/C below 125%.

Tested on: L1210 leukemia ip in BDF1 mice, survival T/C
Test: NCI In Vivo Anticancer Drug Screen. Data for tumor model L1210 Leukemia (intraperitoneal) in B6D2F1 (BDF1) mice
Settings: endpoint: mean survival time, higher = longer survival
In short: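 Transplanted-tumor mice were given test agent; controls received vehicle only. Survival readings from the two groups were divided (treated over control).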

[1] = dose: 100.0 mg/kg/injection, schedule: Q01DX009 (ip), vehicle: saline
[2] = dose: 100.0 mg/kg/injection, schedule: Q04DX003 (ip), vehicle: saline
[3] = dose: 200.0 mg/kg/injection, schedule: Q04DX003 (ip), vehicle: saline
[4] = dose: 400.0 mg/kg/injection, schedule: Q04DX003 (ip), vehicle: saline
[5] = dose: 100.0 mg/kg/injection, schedule: Q04DX003 (ip), vehicle: Klucel (hydroxypropylcellulose) (HPC)
[6] = dose: 200.0 mg/kg/injection, schedule: Q04DX003 (ip), vehicle: Klucel (hydroxypropylcellulose) (HPC)
[7] = dose: 100.0 mg/kg/injection, schedule: Q04DX002 (ip), vehicle: Klucel (hydroxypropylcellulose) (HPC)
[8] = dose: 200.0 mg/kg/injection, schedule: Q04DX002 (ip), vehicle: Klucel (hydroxypropylcellulose) (HPC)
[9] = dose: 400.0 mg/kg/injection, schedule: Q04DX002 (ip), vehicle: Klucel (hydroxypropylcellulose) (HPC)
[10] = dose: 50.0 mg/kg/injection, schedule: Q04DX002 (ip), vehicle: other
[11] = dose: 100.0 mg/kg/injection, schedule: Q01DX009 (ip), vehicle: Klucel (hydroxypropylcellulose) (HPC)
[12] = dose: 200.0 mg/kg/injection, schedule: Q01DX009 (ip), vehicle: Klucel (hydroxypropylcellulose) (HPC)
[13] = dose: 400.0 mg/kg/injection, schedule: Q04DX003 (ip), vehicle: Klucel (hydroxypropylcellulose) (HPC)
[14] = dose: 100.0 mg/kg/injection, schedule: Q01DX009 (ip), vehicle: saline with Tween-80
[15] = dose: 100.0 mg/kg/injection, schedule: Q01DX001 (ip), vehicle: carboxymethylcellulose (CMC)
[16] = dose: 200.0 mg/kg/injection, schedule: Q01DX001 (ip), vehicle: carboxymethylcellulose (CMC)
[17] = dose: 400.0 mg/kg/injection, schedule: Q01DX001 (ip), vehicle: carboxymethylcellulose (CMC)

Measured: T/C

CC(=O)Nc1cc(N(CCOS(C)(=O)=O)CCOS(C)(=O)=O)ccc1N=O
inactive: dose: 0.05 mg/kg/injection, schedule: Q01DX015 (ip), vehicle: saline 114 % of control | dose: 0.1 mg/kg/injection, schedule: Q01DX015 (ip), vehicle: saline 123 % of control | dose: 0.2 mg/kg/injection, schedule: Q01DX015 (ip), vehicle: saline 114 % of control | dose: 0.4 mg/kg/injection, schedule: Q01DX015 (ip), vehicle: saline 114 % of control | dose: 1.0 mg/kg/injection, schedule: Q01DX015 (ip), vehicle: saline 121 % of control | dose: 1.7 mg/kg/injection, schedule: Q01DX015 (ip), vehicle: saline 119 % of control | dose: 7.5 mg/kg/injection, schedule: Q01DX001 (ip), vehicle: saline 113 % of control | dose: 10.0 mg/kg/injection, schedule: Q01DX001 (ip), vehicle: saline 124 % of control

COCC1OC1(C(=O)c1ccccc1Cl)c1ccccc1Cl (stereo not drawn)
inactive: dose: 100.0 mg/kg/injection, schedule: Q01DX001 (ip), vehicle: saline 107 % of control | dose: 200.0 mg/kg/injection, schedule: Q01DX001 (ip), vehicle: saline 100 % of control | dose: 400.0 mg/kg/injection, schedule: Q01DX001 (ip), vehicle: saline 96 % of control

O=C=Nc1ccc(C(=O)c2ccccc2)cc1
inactive: dose: 20.0 mg/kg/injection, schedule: Q01DX009 (ip), vehicle: saline with Tween-80 93 % of control | dose: 40.0 mg/kg/injection, schedule: Q01DX009 (ip), vehicle: saline with Tween-80 93 % of control | dose: 80.0 mg/kg/injection, schedule: Q01DX009 (ip), vehicle: saline with Tween-80 90 % of control | dose: 160.0 mg/kg/injection, schedule: Q01DX009 (ip), vehicle: saline with Tween-80 90 % of control | dose: 320.0 mg/kg/injection, schedule: Q01DX009 (ip), vehicle: saline with Tween-80 93 % of control

Fc1ccc(C(=S)Nc2ccccc2)cc1
inactive: dose: 100.0 mg/kg/injection, schedule: Q01DX001 (ip), vehicle: acetone 104 % of control | dose: 200.0 mg/kg/injection, schedule: Q01DX001 (ip), vehicle: acetone 98 % of control | dose: 400.0 mg/kg/injection, schedule: Q01DX001 (ip), vehicle: acetone 92 % of control

COC(=O)C1(C)CCC(c2ccc(OC)cc2)C(CC(=O)O)C1=O (stereo not drawn)
inactive: [1] 93 % of control | [2] 95 % of control | [3] 98 % of control | dose: 400.0 mg/kg/injection, schedule: Q01DX009 (ip), vehicle: saline 90 % of control | [4] 93 % of control

COc1ccc(C)cc1N=Nc1cc(C)ccc1OC
inactive: dose: 100.0 mg/kg/injection, schedule: Q01DX009 (ip), vehicle: gum acacia 100 % of control | dose: 100.0 mg/kg/injection, schedule: Q04DX003 (ip), vehicle: gum acacia 91 % of control | dose: 200.0 mg/kg/injection, schedule: Q01DX009 (ip), vehicle: gum acacia 91 % of control | dose: 200.0 mg/kg/injection, schedule: Q04DX003 (ip), vehicle: gum acacia 86 % of control | dose: 400.0 mg/kg/injection, schedule: Q01DX009 (ip), vehicle: gum acacia 88 % of control | dose: 400.0 mg/kg/injection, schedule: Q04DX003 (ip), vehicle: gum acacia 92 % of control

O=C(CCCl)[O][Pb]([O]C(=O)CCCl)([c]1ccccc1)[c]1ccccc1
inactive: [2] 108 % of control

O=S(=O)(O)c1ccc(CCCCCCCCCl)cc1
inactive: dose: 100.0 mg/kg/injection, schedule: Q04DX002 (ip), vehicle: saline 87 % of control | dose: 200.0 mg/kg/injection, schedule: Q04DX002 (ip), vehicle: saline 93 % of control

O=c1ccc2c(COc3ccc(Cl)cc3Cl)c3ccc(O)cc3oc-2c1
inactive: [5] 99 % of control | [6] 99 % of control

Cc1ccc([N+](=O)[O-])cc1
inactive: [7] 103 % of control | [8] 103 % of control | [9] 95 % of control

CCCCCc1cc(O)c(CCCC)c(O)c1
inactive: dose: 6.25 mg/kg/injection, schedule: Q04DX002 (ip), vehicle: other 97 % of control | dose: 12.5 mg/kg/injection, schedule: Q04DX002 (ip), vehicle: other 110 % of control | dose: 25.0 mg/kg/injection, schedule: Q04DX002 (ip), vehicle: other 93 % of control | [10] 93 % of control

CC(C)(C)C(=O)Nc1n[nH]c(C#N)c1C#N
inactive: [10] 95 % of control | dose: 100.0 mg/kg/injection, schedule: Q04DX002 (ip), vehicle: other 106 % of control | dose: 200.0 mg/kg/injection, schedule: Q04DX002 (ip), vehicle: other 113 % of control

CC(c1ccccc1)c1ccc(O)cc1 (stereo not drawn)
inactive: dose: 100.0 mg/kg/injection, schedule: Q01DX009 (ip), vehicle: saline sonified 97 % of control | dose: 200.0 mg/kg/injection, schedule: Q01DX009 (ip), vehicle: saline sonified 95 % of control | dose: 400.0 mg/kg/injection, schedule: Q01DX009 (ip), vehicle: saline sonified 97 % of control

COc1cc(Cc2cc(OC)c(OC)cc2[N+](=O)[O-])c([N+](=O)[O-])cc1OC
inactive: [2] 108 % of control | [3] 108 % of control | [4] 120 % of control

CC(C)C(=O)Nc1ccc([N+](=O)[O-])c(C(F)(F)F)c1
inactive: dose: 100.0 mg/kg/injection, schedule: Q01DX001 (ip), vehicle: Klucel (hydroxypropylcellulose) (HPC) 102 % of control | [11] 93 % of control and 109 % of control | [1] 105 % of control | [7] 97 % of control and 92 % of control | [5] 100 % of control | [2] 108 % of control | dose: 200.0 mg/kg/injection, schedule: Q01DX001 (ip), vehicle: Klucel (hydroxypropylcellulose) (HPC) 102 % of control | [12] 100 % of control and 103 % of control | dose: 200.0 mg/kg/injection, schedule: Q01DX009 (ip), vehicle: saline 92 % of control | [8] 100 % of control and 102 % of control | [6] 109 % of control | [3] 101 % of control | dose: 400.0 mg/kg/injection, schedule: Q01DX001 (ip), vehicle: Klucel (hydroxypropylcellulose) (HPC) 110 % of control | [9] 100 % of control and 113 % of control | [13] 92 % of control | [4] 88 % of control

C=CCN(CC=C)C(=O)Nc1ccc(Cl)c(C(F)(F)F)c1
inactive: [14] 97 % of control | dose: 200.0 mg/kg/injection, schedule: Q01DX009 (ip), vehicle: saline with Tween-80 105 % of control | dose: 400.0 mg/kg/injection, schedule: Q01DX009 (ip), vehicle: saline with Tween-80 110 % of control

Cc1ccc(S(=O)(=O)Oc2ccc([N+](=O)[O-])cc2)cc1
inactive: [11] 103 % of control | [5] 97 % of control | [12] 97 % of control | [6] 94 % of control | dose: 400.0 mg/kg/injection, schedule: Q01DX009 (ip), vehicle: Klucel (hydroxypropylcellulose) (HPC) 102 % of control | [13] 100 % of control

COC1OC(COS(=O)OC)C(O)C(O)C1OS(=O)OC (stereo not drawn)
inactive: [15] 100 % of control | [16] 97 % of control | [17] 94 % of control

CC(CC(=O)O)Nc1ccc(Cl)c(Cl)c1 (stereo not drawn)
inactive: dose: 25.0 mg/kg/injection, schedule: Q01DX009 (ip), vehicle: saline with Tween-80 100 % of control | dose: 50.0 mg/kg/injection, schedule: Q01DX009 (ip), vehicle: saline with Tween-80 102 % of control | [14] 94 % of control | dose: 100.0 mg/kg/injection, schedule: Q04DX003 (ip), vehicle: saline with Tween-80 107 % of control | dose: 200.0 mg/kg/injection, schedule: Q04DX003 (ip), vehicle: saline with Tween-80 96 % of control

COc1ncnc2c1ncn2-c1cccc(C)c1
inactive: dose: 50.0 mg/kg/injection, schedule: Q01DX001 (ip), vehicle: carboxymethylcellulose (CMC) 104 % of control | [15] 98 % of control | [16] 104 % of control | [17] 104 % of control
